The record followed here is paper PMC11671014 (PLOS Pathogens, 2024).

In assay [1] the test system is P. falciparum (3D7, ring stage) cultures. Nature of the assay: P. falciparum 3D7 72-h growth inhibition, lactate dehydrogenase (PfLDH) assay. It counts as cell-based. The following applies: Plasmodium falciparum, 72 h exposure. As for the experimental part: Routine analyses of antimalarial activity against P. falciparum 3D7 was tested by TCGLS (Kolkata, India) using the lactate dehydrogenase (PfLDH) growth inhibition assay as previously described. […] P. falciparum strain (3D7) was obtained from BEI Resources.

A further assay concerns HepG2 cells. Briefly: HepG2 72-h viability, CellTiter-Glo. It counts as cell-based. The following applies: Homo sapiens, 72 h exposure. Here is the method: The HepG2 (Human hepatocyte carcinoma) cell line was procured from ATCC (American Type Culture Collection, Manassas, USA; HB-8065) and viability assessed using CellTiter-Glo luminescent cell viability assay reagents (Promega). For the assay, 2,000 cells/well were plated in 384-well plates 24 h prior to the experiment and incubated at 37°C in a CO2 incubator. The medium was removed; and cells were treated with fresh medium containing either vehicle (0.5% DMSO) or serially diluted compounds or doxorubicin (1.3 nM to 25 μM) in a final volume of 50 μL/well and further incubated for 72 h at 37°C in a CO2 incubator. […] Following incubation, 25 μL of medium was discarded and 25 μl of CellTiter-Glo reagent was added to each well and the plate was kept on a plate shaker for 15 min at 25°C with shaking at 300 rpm. Luminescence signals were measured in a PHERAstar FSX reader (BMG LABTECH).
On the technique in general: ATP-based viability assays read luminescence as a measure of living cells.

Assay [2] addresses T1, UAE (ubiquitin activating enzyme) (Homo sapiens, UniProt P22314).
T1 sequence (P22314 1-1058): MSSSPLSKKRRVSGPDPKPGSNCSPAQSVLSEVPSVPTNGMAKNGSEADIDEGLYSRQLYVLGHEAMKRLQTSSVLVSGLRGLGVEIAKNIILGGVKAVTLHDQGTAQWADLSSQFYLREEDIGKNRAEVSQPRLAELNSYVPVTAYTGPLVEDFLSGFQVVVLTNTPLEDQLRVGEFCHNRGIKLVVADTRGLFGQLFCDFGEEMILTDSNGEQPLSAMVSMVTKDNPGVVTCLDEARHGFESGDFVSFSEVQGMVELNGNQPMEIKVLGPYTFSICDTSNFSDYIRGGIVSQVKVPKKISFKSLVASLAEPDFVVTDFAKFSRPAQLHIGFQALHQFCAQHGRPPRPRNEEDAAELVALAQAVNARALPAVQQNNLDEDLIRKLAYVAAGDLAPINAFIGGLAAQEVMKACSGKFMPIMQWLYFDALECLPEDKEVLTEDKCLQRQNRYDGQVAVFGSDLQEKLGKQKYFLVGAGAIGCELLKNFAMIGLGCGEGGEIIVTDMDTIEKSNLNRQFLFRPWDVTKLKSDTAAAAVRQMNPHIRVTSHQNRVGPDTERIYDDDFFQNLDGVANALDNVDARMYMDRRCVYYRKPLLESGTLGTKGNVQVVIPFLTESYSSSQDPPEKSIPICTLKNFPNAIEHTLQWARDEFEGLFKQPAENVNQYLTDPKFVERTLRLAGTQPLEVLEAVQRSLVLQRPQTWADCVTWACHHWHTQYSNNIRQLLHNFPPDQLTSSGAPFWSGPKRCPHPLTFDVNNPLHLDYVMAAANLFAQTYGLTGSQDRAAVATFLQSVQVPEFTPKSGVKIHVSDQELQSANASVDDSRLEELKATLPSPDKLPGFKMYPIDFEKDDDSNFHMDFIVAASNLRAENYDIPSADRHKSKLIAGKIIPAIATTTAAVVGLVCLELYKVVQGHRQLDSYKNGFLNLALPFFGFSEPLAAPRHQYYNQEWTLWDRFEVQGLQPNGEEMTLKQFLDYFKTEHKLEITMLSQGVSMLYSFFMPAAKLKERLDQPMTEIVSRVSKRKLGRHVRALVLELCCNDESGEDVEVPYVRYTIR
Briefly: UAE E1-E2 transthiolation HTRF assay. The class given is biochemical. From the text: (§1) An Homogeneous Time-Resolved Fluorescence (HTRF) enzyme assay was employed to evaluate compound activity against ATG7 as previously described. In this assay, a Flag-tagged ATG8 homolog (GABA type A receptor-associated protein; GABARAP) is activated by ATG7 and then transthiolated to a GST-tagged E2 (ATG3). The product of the enzyme reaction, Flag-GABARAP-ATG3-GST, is quantified by measuring FRET between Europium-Cryptate labelled monoclonal anti-Flag M2 (FLAG M2-Eu cryptate; Revvity, Cat# 61FG2KLB) and […] (Anti-GST IgG conjugated to SureLight-Allophycocyanin) (Revvity, Cat# AD0059G)). The activation and transthiolation of ubiquitin by UAE, activation and transthiolation of NEDD8 by NAE and activation and transthiolation of SUMO by SAE were all assayed in a similar fashion with appropriately tagged ubiquitin-like proteins and E2 conjugating enzymes as described.
(Time-resolved FRET reads energy transfer from a long-lived donor to a nearby acceptor.)

Assay [3] addresses T2, SAE (SUMO-activating enzyme) (Homo sapiens, UniProt Q9UBT2).
T2 sequence (Q9UBT2 1-640): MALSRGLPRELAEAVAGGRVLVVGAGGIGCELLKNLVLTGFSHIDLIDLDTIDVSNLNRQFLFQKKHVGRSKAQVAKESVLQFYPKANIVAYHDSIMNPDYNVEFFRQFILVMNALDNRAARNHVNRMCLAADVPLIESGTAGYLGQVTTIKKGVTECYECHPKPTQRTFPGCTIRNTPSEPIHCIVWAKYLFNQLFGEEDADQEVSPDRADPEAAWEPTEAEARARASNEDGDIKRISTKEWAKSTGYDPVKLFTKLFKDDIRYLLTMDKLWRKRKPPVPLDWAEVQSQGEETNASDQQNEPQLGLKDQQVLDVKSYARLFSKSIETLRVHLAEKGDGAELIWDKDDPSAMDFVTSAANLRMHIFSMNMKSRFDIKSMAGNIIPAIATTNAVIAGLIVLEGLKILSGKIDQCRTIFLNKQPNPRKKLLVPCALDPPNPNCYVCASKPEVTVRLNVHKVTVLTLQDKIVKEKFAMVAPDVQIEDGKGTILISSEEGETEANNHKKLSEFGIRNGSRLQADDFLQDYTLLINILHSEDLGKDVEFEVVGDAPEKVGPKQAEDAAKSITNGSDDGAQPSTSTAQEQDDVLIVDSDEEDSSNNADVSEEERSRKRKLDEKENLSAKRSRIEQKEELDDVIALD
T2 sequence (Q9UBE0 1-346 partner): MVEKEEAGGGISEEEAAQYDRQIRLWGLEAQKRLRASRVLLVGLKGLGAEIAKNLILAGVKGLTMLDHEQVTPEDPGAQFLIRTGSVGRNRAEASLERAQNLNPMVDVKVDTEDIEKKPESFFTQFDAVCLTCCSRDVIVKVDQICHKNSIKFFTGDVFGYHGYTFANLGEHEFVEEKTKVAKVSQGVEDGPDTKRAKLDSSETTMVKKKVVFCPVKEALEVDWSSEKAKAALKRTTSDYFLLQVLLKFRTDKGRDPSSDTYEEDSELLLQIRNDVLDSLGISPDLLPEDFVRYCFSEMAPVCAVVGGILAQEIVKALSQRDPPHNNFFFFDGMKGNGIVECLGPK
Nature of the assay: SAE E1-E2 transthiolation HTRF assay. It counts as biochemical.
Source text: as §1

As usually defined, the IC50 is the concentration needed to halve the response being measured. Read a low IC50 as greater potency.

Entries after “also recorded” stand apart in the source; their conditions may differ.

Turning to `Nc1ncnc2c1c(C(F)(F)F)nn2[C@@H]1O[C@H](COS(N)(=O)=O)[C@@H](O)[C@H]1O` [ML107], the concentration for half-maximal inhibition (IC50) in assay [1] was 0.0042 ± 0.0005 µM; in the assay on HepG2 cells, 2.52 µM; in assay [2] it was 22.9 ± 0.7 µM; in assay [3], 78.5 ± 6.2 µM.
Taken in the same sequence, the figures for `Nc1ncnc2c1c(Oc1ccccc1)nn2[C@@H]1O[C@H](COS(N)(=O)=O)[C@@H](O)[C@H]1O` [ML470] were 0.0448 ± 0.0082 µM, > 50 µM, > 100 µM and > 100 µM.
Take `CC(C)c1nn([C@@H]2O[C@H](COS(N)(=O)=O)[C@@H](O)[C@H]2O)c2ncnc(N)c12` [ML471, ((2R,3S,4R,5R)-5-(4-amino-3-isopropyl-1H-pyrazolo[3,4-d]pyrimidin-1-yl)-3,4-dihydroxytetrahydrofuran-2-yl)methyl sulfamate]: the 50% inhibitory concentration (IC50) in assay [1] is 0.0015 ± 0.0002 µM; with HepG2 cells, > 50 µM; in assay [2] it was 85.7 ± 6.5 µM; in assay [3], > 100 µM. Further, the “activity against UAE (in words)” value in assay [2] (human UAE in vitro) was “no inhibitory activity; also recorded: no or very little activity”. Moreover, the “activity against SAE (in words)” value in assay [3] was “no or very little activity”.
`CCOc1nn([C@@H]2O[C@H](COS(N)(=O)=O)[C@@H](O)[C@H]2O)c2ncnc(N)c12` [ML676]: the half-maximal inhibitory concentration (IC50) in assay [1] turned out to be 0.0028 ± 0.0002 µM; in the assay on HepG2 cells, 22.4 µM; in assay [2] it was 73.4 ± 3.5 µM; in assay [3], 31.4 ± 5.7 µM.
Taken in the same sequence, the figures for `CCc1nn([C@@H]2O[C@H](COS(N)(=O)=O)[C@@H](O)[C@H]2O)c2ncnc(N)c12` [ML681] were 0.0034 ± 0.0001 µM, 7.53 µM, 8.7 ± 0.6 µM and 22.4 ± 3.1 µM.
In the same order, the values of `CC(C)Oc1nn([C@@H]2O[C@H](COS(N)(=O)=O)[C@@H](O)[C@H]2O)c2ncnc(N)c12` [ML723] are 0.0025 ± 0.0006 µM, > 50 µM, > 100 µM and > 100 µM.
Consider `Nc1ncnc2c1c(OC(F)F)nn2[C@@H]1O[C@H](COS(N)(=O)=O)[C@@H](O)[C@H]1O` [ML901], for which the IC50 is 0.0028 ± 0.0002 µM in assay [1], 4.65 µM with HepG2 cells, 5.39 ± 0.16 µM in assay [2] and > 100 µM in assay [3]. For the same molecule, in assay [3], the “activity against SAE (in words)” value is “no activity”.
